Assays:
Test in all cases: Eurofins kinase profiling
Format in all cases: biochemical
EGFR(T790M,L858R)(h) = molecular target: T1, EGFR(T790M,L858R)(h) (Homo sapiens, UniProt P00533, L858R/T790M); conditions: read-out: residual kinase activity EGFR(T790M,L858R)(h)
T1 construct: purchased Eurofins KinaseProfiler
Outline: (§1)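 Single-point screen at 1 µM compound; radiometric read-out of kinase activity using radiolabeled phosphate, per standard KinaseProfiler protocol.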

Pim-1(h) = molecular target: T2, Pim-1(h) (Homo sapiens, UniProt P11309); conditions: read-out: residual kinase activity Pim-1(h)
T2 construct: purchased Eurofins KinaseProfiler
T2 sequence (P11309 whole entry): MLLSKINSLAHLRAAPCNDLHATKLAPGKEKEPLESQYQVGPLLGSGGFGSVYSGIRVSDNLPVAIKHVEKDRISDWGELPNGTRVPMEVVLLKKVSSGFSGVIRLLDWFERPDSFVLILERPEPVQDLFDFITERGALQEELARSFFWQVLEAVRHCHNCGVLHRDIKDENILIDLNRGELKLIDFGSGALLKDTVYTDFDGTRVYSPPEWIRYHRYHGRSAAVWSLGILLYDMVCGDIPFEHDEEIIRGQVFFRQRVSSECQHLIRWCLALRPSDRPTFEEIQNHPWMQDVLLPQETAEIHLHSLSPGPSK
Outline: as §1

LKB1(h) = molecular target: T3, LKB1(h) (Homo sapiens, UniProt Q15831); conditions: read-out: residual kinase activity LKB1(h)
T3 construct: purchased Eurofins KinaseProfiler
T3 sequence (Q15831 1-433): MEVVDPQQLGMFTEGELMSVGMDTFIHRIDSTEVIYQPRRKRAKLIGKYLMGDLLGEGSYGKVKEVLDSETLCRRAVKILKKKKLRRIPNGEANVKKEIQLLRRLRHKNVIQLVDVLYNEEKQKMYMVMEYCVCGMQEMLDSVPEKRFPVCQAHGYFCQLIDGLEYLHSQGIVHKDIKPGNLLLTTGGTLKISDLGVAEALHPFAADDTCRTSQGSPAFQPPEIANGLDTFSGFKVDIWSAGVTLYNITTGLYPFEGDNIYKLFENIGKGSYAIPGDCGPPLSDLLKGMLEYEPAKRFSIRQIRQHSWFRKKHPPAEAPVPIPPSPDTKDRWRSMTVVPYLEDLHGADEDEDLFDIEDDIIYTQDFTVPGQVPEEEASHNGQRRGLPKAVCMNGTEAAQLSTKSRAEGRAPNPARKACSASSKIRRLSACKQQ
T3 sequence (Q7RTN6 1-431 partner): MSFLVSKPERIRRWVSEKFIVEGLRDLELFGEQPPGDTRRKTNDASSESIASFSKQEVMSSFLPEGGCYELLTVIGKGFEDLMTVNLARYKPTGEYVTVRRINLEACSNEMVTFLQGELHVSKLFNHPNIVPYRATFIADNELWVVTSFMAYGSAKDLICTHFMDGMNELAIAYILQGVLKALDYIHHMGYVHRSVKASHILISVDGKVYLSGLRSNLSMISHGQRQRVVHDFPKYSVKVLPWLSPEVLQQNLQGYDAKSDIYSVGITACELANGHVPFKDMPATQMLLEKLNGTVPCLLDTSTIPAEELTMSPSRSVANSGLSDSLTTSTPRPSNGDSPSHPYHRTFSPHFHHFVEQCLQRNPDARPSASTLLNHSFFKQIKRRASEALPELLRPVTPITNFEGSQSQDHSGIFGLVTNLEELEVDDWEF
T3 sequence (Q9Y376 1-341 partner): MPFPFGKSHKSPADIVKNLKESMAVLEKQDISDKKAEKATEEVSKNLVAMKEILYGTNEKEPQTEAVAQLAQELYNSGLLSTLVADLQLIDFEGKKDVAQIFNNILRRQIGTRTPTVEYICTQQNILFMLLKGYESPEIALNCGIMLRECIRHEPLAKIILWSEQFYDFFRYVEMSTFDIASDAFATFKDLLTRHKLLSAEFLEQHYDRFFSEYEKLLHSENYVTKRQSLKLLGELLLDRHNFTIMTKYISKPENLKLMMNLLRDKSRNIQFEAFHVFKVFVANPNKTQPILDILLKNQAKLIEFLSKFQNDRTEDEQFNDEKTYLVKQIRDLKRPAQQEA
Outline: as §1

Flt3(h) = molecular target: T4, Flt3(h) (Homo sapiens, UniProt P36888); conditions: read-out: residual kinase activity Flt3(h)
T4 construct: purchased Eurofins KinaseProfiler
T4 sequence (P36888 27-993): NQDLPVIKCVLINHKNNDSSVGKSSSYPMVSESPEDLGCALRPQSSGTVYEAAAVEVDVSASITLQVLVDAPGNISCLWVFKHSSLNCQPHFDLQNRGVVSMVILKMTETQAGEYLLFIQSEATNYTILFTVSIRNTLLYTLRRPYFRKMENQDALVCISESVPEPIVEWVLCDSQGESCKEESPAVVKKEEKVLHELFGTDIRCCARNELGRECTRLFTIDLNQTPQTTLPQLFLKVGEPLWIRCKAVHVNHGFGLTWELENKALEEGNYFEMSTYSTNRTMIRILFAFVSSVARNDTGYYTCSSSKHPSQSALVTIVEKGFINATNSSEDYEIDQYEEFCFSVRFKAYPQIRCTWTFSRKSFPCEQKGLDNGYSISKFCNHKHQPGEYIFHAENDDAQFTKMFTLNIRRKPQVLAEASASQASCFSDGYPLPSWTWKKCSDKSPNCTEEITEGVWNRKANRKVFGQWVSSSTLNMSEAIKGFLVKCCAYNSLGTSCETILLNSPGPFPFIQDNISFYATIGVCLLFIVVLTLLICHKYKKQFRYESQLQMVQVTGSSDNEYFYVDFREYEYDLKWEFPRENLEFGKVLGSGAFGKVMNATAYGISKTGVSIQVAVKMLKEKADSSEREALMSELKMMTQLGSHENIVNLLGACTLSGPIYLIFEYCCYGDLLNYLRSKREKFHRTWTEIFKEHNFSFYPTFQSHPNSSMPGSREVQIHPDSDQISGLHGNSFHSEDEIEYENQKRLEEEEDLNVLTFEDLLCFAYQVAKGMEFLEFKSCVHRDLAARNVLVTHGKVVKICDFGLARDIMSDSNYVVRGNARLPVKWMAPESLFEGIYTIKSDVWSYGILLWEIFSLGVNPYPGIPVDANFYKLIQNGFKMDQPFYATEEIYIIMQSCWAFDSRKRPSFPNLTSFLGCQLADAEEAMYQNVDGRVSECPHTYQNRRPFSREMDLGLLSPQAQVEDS
Outline: as §1

DNA-PK(h) = molecular target: T5, DNA-PK(h) (Homo sapiens, UniProt P78527); conditions: read-out: residual kinase activity DNA-PK(h)
T5 construct: purchased Eurofins KinaseProfiler
Outline: as §1

FGFR4(h) = molecular target: T6, FGFR4(h) (Homo sapiens, UniProt P22455); conditions: read-out: residual kinase activity FGFR4(h)
T6 construct: purchased Eurofins KinaseProfiler
T6 sequence (P22455 22-802): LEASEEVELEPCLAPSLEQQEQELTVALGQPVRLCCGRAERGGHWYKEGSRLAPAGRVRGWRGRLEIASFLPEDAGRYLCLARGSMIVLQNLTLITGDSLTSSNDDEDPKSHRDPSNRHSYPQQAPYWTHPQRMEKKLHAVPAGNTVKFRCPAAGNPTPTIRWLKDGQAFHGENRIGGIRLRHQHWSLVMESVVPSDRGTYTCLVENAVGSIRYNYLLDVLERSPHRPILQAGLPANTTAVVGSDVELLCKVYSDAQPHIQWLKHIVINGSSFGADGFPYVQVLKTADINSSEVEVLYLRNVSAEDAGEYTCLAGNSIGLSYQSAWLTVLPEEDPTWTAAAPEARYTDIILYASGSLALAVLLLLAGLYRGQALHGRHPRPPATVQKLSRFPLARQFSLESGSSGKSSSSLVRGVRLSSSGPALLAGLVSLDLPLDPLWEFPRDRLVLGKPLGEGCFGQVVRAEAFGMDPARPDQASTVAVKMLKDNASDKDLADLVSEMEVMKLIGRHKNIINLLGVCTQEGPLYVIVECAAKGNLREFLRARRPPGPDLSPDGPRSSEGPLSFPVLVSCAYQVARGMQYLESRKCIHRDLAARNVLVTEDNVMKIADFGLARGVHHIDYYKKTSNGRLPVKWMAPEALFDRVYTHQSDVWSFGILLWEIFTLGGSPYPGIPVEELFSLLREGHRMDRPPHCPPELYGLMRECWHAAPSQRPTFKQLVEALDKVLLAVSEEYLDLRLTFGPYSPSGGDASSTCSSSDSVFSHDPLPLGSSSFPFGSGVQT
Outline: as §1

cKit(V560G)(h) = molecular target: T7, cKit(V560G)(h) (Homo sapiens, UniProt P10721, V560G); conditions: read-out: residual kinase activity cKit(V560G)(h)
T7 construct: purchased Eurofins KinaseProfiler
T7 sequence (P10721 26-976 V560G): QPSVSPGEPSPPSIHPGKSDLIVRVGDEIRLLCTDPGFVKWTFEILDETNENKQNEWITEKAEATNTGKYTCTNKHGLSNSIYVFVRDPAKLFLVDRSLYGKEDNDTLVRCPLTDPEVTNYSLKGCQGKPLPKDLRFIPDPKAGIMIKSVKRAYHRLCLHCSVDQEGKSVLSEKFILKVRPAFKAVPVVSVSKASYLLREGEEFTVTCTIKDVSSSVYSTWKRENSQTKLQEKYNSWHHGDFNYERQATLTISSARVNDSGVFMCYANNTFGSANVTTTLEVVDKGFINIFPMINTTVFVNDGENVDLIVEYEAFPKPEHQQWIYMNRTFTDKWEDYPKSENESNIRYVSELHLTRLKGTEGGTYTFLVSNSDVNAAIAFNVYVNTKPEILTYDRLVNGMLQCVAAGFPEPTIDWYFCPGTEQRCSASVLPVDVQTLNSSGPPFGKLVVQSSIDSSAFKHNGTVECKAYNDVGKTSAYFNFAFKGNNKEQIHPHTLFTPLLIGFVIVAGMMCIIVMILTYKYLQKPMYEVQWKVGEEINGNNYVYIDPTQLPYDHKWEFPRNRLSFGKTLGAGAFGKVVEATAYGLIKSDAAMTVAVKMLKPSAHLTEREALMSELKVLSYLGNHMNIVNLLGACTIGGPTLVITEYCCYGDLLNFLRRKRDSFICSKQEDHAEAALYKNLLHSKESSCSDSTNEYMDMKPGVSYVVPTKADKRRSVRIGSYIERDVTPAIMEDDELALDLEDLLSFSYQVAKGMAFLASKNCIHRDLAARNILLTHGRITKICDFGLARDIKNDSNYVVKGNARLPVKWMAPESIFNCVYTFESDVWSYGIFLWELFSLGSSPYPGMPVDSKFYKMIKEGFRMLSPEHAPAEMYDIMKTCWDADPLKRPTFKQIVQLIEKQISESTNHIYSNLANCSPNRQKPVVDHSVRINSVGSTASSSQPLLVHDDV
Outline: as §1

[1] = molecular target: T8, PI3 Kinase (p110d/p85a)(h) (Homo sapiens, UniProt O00329); conditions: read-out: residual kinase activity PI3 Kinase (p110d/p85a)(h)
T8 construct: purchased Eurofins KinaseProfiler
T8 sequence (O00329 whole entry): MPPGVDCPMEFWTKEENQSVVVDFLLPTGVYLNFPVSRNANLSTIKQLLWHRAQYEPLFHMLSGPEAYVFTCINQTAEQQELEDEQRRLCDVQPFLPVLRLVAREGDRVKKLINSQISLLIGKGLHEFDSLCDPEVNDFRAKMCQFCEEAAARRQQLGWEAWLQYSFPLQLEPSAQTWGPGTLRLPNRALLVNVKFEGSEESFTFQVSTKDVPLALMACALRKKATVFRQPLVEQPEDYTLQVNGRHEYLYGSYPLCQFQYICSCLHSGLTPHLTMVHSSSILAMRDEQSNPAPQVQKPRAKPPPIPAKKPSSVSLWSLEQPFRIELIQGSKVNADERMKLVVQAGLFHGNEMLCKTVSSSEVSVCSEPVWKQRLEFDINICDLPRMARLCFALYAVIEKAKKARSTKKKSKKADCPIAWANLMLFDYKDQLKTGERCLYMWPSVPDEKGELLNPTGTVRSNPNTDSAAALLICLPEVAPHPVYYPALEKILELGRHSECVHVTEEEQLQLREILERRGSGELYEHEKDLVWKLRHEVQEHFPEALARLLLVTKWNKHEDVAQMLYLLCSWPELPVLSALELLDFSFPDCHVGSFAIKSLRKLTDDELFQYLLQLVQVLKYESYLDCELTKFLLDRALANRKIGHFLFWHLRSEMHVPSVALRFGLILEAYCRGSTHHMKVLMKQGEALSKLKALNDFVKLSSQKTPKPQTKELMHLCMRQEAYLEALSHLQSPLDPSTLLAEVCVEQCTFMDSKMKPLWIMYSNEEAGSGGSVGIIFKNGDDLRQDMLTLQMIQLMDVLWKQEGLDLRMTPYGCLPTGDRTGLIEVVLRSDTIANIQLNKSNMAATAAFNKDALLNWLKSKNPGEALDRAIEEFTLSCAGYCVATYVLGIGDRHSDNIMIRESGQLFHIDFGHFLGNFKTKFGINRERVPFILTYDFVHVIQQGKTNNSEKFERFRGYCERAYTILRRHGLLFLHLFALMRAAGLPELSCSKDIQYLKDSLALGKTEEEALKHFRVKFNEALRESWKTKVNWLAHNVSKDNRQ
T8 sequence (P27986 whole entry partner): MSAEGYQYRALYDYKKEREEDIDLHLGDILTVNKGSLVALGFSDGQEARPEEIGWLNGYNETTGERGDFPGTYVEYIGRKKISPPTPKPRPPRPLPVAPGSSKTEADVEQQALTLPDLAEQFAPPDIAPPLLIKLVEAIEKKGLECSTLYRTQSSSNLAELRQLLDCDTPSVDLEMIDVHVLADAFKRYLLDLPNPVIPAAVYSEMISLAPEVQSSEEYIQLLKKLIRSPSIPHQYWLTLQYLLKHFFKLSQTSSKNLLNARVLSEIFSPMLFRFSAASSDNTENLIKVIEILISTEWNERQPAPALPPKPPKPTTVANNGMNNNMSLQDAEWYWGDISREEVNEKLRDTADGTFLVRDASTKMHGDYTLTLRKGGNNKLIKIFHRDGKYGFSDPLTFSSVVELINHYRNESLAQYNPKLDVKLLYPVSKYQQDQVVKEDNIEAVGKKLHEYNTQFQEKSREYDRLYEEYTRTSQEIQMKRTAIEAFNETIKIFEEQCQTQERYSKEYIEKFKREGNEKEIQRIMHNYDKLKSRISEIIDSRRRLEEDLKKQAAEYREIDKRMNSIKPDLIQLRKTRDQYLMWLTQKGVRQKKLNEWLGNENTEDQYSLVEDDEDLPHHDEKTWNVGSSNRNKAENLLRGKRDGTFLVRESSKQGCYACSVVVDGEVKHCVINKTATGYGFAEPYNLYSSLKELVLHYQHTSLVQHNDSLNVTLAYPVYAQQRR
Outline: as §1

T1 sequence (P00533 25-1210 T790M/L858R): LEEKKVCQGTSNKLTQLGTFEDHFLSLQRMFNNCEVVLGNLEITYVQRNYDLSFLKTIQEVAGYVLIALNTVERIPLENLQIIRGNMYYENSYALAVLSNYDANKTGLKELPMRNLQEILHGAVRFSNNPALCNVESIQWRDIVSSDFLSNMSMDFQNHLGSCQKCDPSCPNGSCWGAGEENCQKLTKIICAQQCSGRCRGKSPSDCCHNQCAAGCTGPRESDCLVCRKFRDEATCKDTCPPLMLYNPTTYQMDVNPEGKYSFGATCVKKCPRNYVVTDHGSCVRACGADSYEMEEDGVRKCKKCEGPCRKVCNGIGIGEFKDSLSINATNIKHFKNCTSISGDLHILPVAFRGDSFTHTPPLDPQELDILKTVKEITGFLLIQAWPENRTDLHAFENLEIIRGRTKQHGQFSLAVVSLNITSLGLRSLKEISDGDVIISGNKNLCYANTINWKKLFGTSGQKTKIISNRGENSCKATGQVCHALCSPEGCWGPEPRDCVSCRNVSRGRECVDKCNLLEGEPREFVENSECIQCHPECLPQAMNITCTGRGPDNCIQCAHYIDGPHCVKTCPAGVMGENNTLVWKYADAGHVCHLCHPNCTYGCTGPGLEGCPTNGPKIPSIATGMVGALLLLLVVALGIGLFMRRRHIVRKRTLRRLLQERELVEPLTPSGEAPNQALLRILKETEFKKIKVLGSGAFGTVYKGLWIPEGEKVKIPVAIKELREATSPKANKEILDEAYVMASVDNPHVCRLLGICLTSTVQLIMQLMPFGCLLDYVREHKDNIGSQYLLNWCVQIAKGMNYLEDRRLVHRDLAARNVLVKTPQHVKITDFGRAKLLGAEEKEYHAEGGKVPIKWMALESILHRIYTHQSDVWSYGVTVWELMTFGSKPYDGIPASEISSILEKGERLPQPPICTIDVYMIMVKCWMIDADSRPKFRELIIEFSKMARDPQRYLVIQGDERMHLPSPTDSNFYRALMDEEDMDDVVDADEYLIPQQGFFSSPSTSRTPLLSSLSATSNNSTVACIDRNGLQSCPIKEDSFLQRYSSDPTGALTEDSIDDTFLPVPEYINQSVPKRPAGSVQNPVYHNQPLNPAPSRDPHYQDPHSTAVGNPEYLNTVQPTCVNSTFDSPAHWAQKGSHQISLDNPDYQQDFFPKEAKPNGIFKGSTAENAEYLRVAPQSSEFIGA

| remaining activity at 1 µM (EGFR(T790M,L858R)(h)) [%] | remaining activity at 1 µM (Pim-1(h)) [%] | remaining activity at 1 µM (LKB1(h)) [%] | remaining activity at 1 µM (Flt3(h)) [%] | remaining activity at 1 µM (DNA-PK(h)) [%] | remaining activity at 1 µM (FGFR4(h)) [%] | remaining activity at 1 µM (cKit(V560G)(h)) [%] | remaining activity at 1 µM [1] [%] | SMILES |
| --- | --- | --- | --- | --- | --- | --- | --- | --- |
| 88 | 87 | 98 | 108 | 98 | 104 | 104 | 115 | CONC(=O)c1ccccc1Nc1cc(Nc2cc(C)nn2C(C)C)ncc1Cl [GSK2256098] |
| 65 | 86 | 89 | 6 | 85 | 104 | 74 | 88 | CNC(=O)c1ccc(Nc2ncc(C(F)(F)F)c(NCc3nccnc3N(C)S(C)(=O)=O)n2)cc1 [VS-6063, Defactinib] |

| SMILES | remaining activity at 1 µM (EGFR(T790M,L858R)(h)) [%] | remaining activity at 1 µM (Pim-1(h)) [%] | remaining activity at 1 µM (LKB1(h)) [%] | remaining activity at 1 µM (Flt3(h)) [%] | remaining activity at 1 µM (DNA-PK(h)) [%] | remaining activity at 1 µM (FGFR4(h)) [%] | remaining activity at 1 µM (cKit(V560G)(h)) [%] | remaining activity at 1 µM [1] [%] |
| --- | --- | --- | --- | --- | --- | --- | --- | --- |
| CNC(=O)c1cccc(C)c1Nc1nc(Nc2ccc(N3CCN(C4C5CC6CC4CC(O)(C6)C5)CC3)cc2OC)ncc1C(F)(F)F (stereo not drawn) [SJP1602, 2-((2-((4-(4-((2s,5r)-5-hydroxyadamantan-2-yl)piperazin-1-yl)-2-methoxyphenyl)amino)-5-(trifluoromethyl)pyrimidin-4-yl)amino)-N,3-dimethylbenzamide] | 88 | 87 | 96 | 77 | 98 | 102 | 136 | 91 |

Reference: article PMC10528299, “Targeting FAK/PYK2 with SJP1602 for Anti-Tumor Activity in Triple-Negative Breast Cancer” (Current Issues in Molecular Biology, 2023)
